Data from patent US20260226071A1, “2, 4-DIANILINOPYRIMIDINE-BASED AURORA-A KINASE SELECTIVE DEGRADATION INDUCING COMPOUNDS” (UPPTHERA, INC., priority 2023, published 2026).

Biological target: T1, Aurora kinase A (AURKA) (Homo sapiens, UniProt O14965)
T1 construct: endogenous in cells; host or cells: HeLa LgBit (AURKA-HiBit KI), CRISPR/Cas9 knock-in at the endogenous AURKA locus
T1 sequence (O14965 1-403): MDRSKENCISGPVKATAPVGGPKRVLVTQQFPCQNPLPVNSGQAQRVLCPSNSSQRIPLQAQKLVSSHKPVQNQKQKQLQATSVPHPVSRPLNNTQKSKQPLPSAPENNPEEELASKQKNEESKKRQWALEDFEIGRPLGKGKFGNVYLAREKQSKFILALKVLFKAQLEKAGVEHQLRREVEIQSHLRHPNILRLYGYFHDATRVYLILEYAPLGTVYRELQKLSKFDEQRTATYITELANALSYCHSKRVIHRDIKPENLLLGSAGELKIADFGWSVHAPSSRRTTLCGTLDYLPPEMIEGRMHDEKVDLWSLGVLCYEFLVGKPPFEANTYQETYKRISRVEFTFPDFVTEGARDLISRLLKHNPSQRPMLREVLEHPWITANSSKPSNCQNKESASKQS
Experiment: Luciferase assay for AURKA in HeLa LgBit (AURKA-HiBit KI) cell line
Assay type: cell-based
Conditions: HeLa LgBit (AURKA-HiBit KI) cells, measured after 12 hours
From the text: HeLa cell lines that stably express LgBit were constructed via LgBit vector transfection. Then, donor DNA and guide RNA for insertion of HiBit amino acid sequence at C-terminus of inherent Aurora kinase A (AURKA) genes were designed and constructed. Thereafter, they were transfected into the cell lines with CRISPR/Cas9 expression vector system. HiBit gene knock-in single cells were selected, passaged and used for the experiments.
For cell culture, DMEM (Gibco, Cat. No. 11995-065; Lot. No. 2562497), FBS (Gibco, Cat. No. 16000-044; Lot. No. 2511328P), Penicillin/Streptomycin (PS) (Gibco, Cat. No. 15140-122; Lot. No. 2585636), 90 mm^2 cell culture dish (SPL, Cat. No. 20100), 96-well white plate, PBS pH 7.4 (Gibco, […]), TrypLE™ Express (Gibco, Cat. No. 12605-010; Lot. No. 2522525), counting chamber (hematocytometer) (Hirschmann, Cat. No. 8100204; Lot. No. 8021087) and 0.4% Trypan Blue solution (DYNEBIO, Cat. No. CBT3710; Lot. No. 20231017) were used. Cells were cultured in DMEM supplemented with 10% FBS and 1% PS and incubated in CO2 incubator (Thermo, Cat. No. 4111) at 37° C., 5% CO2 condition.
HeLa LgBit (AURKA-HiBit KI) cell lines were cultured in 90 mm^2 cell culture dish, and 3×10^4 cells in […] of total medium volume were seeded and incubated for 18 hours in CO2 incubator. Then, Eudurazine (Promega, Cat. No. N247B; Lot. No. 495218) was added to each well to make up 1% of the total volume, followed by further incubation for 2 hours in CO2 incubator.
The present compounds were fully dissolved in DMSO (Sigma-Aldrich Cat. No. D2438, Lot. No. RNBL7287) and 10 nM or 100 nM of total concentration were used in the experiment. After adding the compounds in each well of 96-well white plate, the plate was placed in the plate reader (BMG Labtech, CLARIOstar Plus) for real-time analysis. The wavelength for analysis was set to […], and the luminescence value was measured after 12 hours. The luminescence value was analyzed through an Excel program.

Row | SMILES | luminescence value (Level) (10 nM compound) | luminescence value (Level) (100 nM compound)
1 | O=C1CCC(c2cccc(N3CCC(CN4CCN(C(=O)Cc5ccc(Nc6ncc(F)c(Nc7ccc(C(=O)Nc8ccccc8Cl)cc7)n6)cc5)CC4)CC3)c2)C(=O)N1 (centres unmarked) [Compound 2, N-(2-chlorophenyl)-4-((2-((4-(2-(4-((1-(3-(2,6-dioxopiperidin-3-yl)phenyl)piperidin-4-yl)methyl)piperazin-1-yl)-2-oxoethyl)phenyl)amino)-5-fluoropyrimidin-4-yl)amino)benzamide] | C (C is 0.5 to 0.7) | B (B is 0.2 to 0.4)
2 | CN(CC1CCN(c2ccc(C3CCC(=O)NC3=O)cc2)CC1)[C@@H]1CCC[C@@H]1NC(=O)c1ccc(Nc2ncc(F)c(Nc3ccc(C(=O)Nc4ccccc4Cl)cc3)n2)cc1 (stereo partly drawn) [Compound 10, N-(2-chlorophenyl)-4-((2-((4-(((1S,2R)-2-(((1-(4-(2,6-dioxopiperidin-3-yl)phenyl)piperidin-4-yl)methyl)(methyl)amino)cyclopentyl)carbamoyl)phenyl)amino)-5-fluoropyrimidin-4-yl)amino)benzamide] | D (D is 0.7 to 0.8) | C (C is 0.4 to 0.6)
3 | CN(CC1CCN(c2ccc(C3CCC(=O)NC3=O)cc2)CC1)C1CC(NC(=O)c2ccc(Nc3ncc(F)c(Nc4ccc(C(=O)Nc5ccccc5Cl)cc4)n3)cc2)C1 (centres unmarked) [Compound 11, N-(2-chlorophenyl)-4-((2-((4-((3-(((1-(4-(2,6-dioxopiperidin-3-yl)phenyl)piperidin-4-yl)methyl)(methyl)amino)cyclobutyl)carbamoyl)phenyl)amino)-5-fluoropyrimidin-4-yl)amino)benzamide] | D (D is 0.7 to 0.8) | B (B is 0.2 to 0.4)
4 | O=C1CCC(c2ccc(C#CC3CCN(C4CCN(C(=O)c5ccc(Nc6ncc(F)c(Nc7ccc(C(=O)Nc8ccccc8Cl)cc7)n6)cc5)CC4)CC3)cc2)C(=O)N1 (centres unmarked) [Compound 14, N-(2-chlorophenyl)-4-((2-((4-(4-((4-(2,6-dioxopiperidin-3-yl)phenyl)ethynyl)-[1,4′-bipiperidine]-1′-carbonyl)phenyl)amino)-5-fluoropyrimidin-4-yl)amino)benzamide] | D (D is 0.7 to 0.8) | C (C is 0.4 to 0.6)
5 | O=C1CCC(c2ccc(C#CC3CCN(C4CCN(C(=O)Cc5ccc(Nc6ncc(F)c(Nc7ccc(C(=O)Nc8ccccc8Cl)cc7)n6)cc5)CC4)CC3)cc2)C(=O)N1 (centres unmarked) [Compound 15, N-(2-chlorophenyl)-4-((2-((4-(2-(4-((4-(2,6-dioxopiperidin-3-yl)phenyl)ethynyl)-[1,4′-bipiperidin]-1′-yl)-2-oxoethyl)phenyl)amino)-5-fluoropyrimidin-4-yl)amino)benzamide] | D (D is 0.7 to 0.8) | B (B is 0.2 to 0.4)
6 | O=C1CCC(c2ccc(N3CCC(CCN4CCC(NC(=O)c5ccc(Nc6ncc(F)c(Nc7ccc(C(=O)Nc8ccccc8Cl)cc7)n6)cc5)CC4)CC3)cc2)C(=O)N1 (centres unmarked) [Compound 19, N-(2-chlorophenyl)-4-((2-((4-((1-(2-(1-(4-(2,6-dioxopiperidin-3-yl)phenyl)piperidin-4-yl)ethyl)piperidin-4-yl)carbamoyl)phenyl)amino)-5-fluoropyrimidin-4-yl)amino) benzamide] | C (C is 0.5 to 0.7) | B (B is 0.2 to 0.4)
7 | O=C1CCC(c2ccc(C#CC3CCN(C4CCN(C(=O)c5ccc(Nc6ncc(F)c(Nc7ccc(C(=O)Nc8ccccc8Cl)cc7)n6)cc5)CC4)CC3)cn2)C(=O)N1 (centres unmarked) [Compound 20, N-(2-chlorophenyl)-4-((2-((4-(4-((6-(2,6-dioxopiperidin-3-yl)pyridin-3-yl)ethynyl)-[1,4′-bipiperidine]-1′-carbonyl)phenyl)amino)-5-fluoropyrimidin-4-yl)amino)benzamide] | D (D is 0.7 to 0.8) | C (C is 0.4 to 0.6)
8 | O=C1CCC(Nc2cccc(N3CCC(CN4CCN(C(=O)Cc5ccc(Nc6ncc(F)c(Nc7ccc(C(=O)Nc8ccccc8Cl)cc7)n6)cc5)CC4)CC3)c2)C(=O)N1 (centres unmarked) [Compound 25, N-(2-chlorophenyl)-4-((2-((4-(2-(4-((1-(3-((2,6-dioxopiperidin-3-yl)amino)phenyl)piperidin-4-yl)methyl)piperazin-1-yl)-2-oxoethyl)phenyl)amino)-5-fluoropyrimidin-4-yl)amino)benzamide] | C (C is 0.5 to 0.7) | B (B is 0.2 to 0.4)
9 | O=C1CCC(Nc2ccc(N3C[C@@H]4[C@@H](CN5CCC(NC(=O)c6ccc(Nc7ncc(F)c(Nc8ccc(C(=O)Nc9ccccc9Cl)cc8)n7)cc6)CC5)[C@@H]4C3)cc2)C(=O)N1 (stereo partly drawn) [Compound 27, N-(2-chlorophenyl)-4-((2-((4-((1-(((1R,5S,6s)-3-(4-((2,6-dioxopiperidin-3-yl)amino)phenyl)-3-azabicyclo[3.1.0]hexan-6-yl)methyl)piperidin-4-yl)carbamoyl)phenyl)amino)-5-fluoropyrimidin-4-yl)amino)benzamide] | B (B is 0.3 to 0.5) | B (B is 0.2 to 0.4)
10 | O=C1CCC(Nc2ccc(N3CC4CC(C3)N(C3CCN(C(=O)c5ccc(Nc6ncc(F)c(Nc7ccc(C(=O)Nc8ccccc8Cl)cc7)n6)cc5)CC3)C4)cc2)C(=O)N1 (centres unmarked) [Compound 28, N-(2-chlorophenyl)-4-((2-((4-(4-(3-(4-((2,6-dioxopiperidin-3-yl)amino)phenyl)-3,6-diazabicyclo[3.2.1]octan-6-yl)piperidine-1-carbonyl)phenyl)amino)-5-fluoropyrimidin-4-yl)amino)benzamide] | C (C is 0.5 to 0.7) | B (B is 0.2 to 0.4)
11 | O=C1CCC(Nc2ccc(N3CC4CC(C3)N(CC3CCN(C(=O)c5ccc(Nc6ncc(F)c(Nc7ccc(C(=O)Nc8ccccc8Cl)cc7)n6)cc5)CC3)C4)cc2)C(=O)N1 (centres unmarked) [Compound 29, N-(2-chlorophenyl)-4-((2-((4-(4-((3-(4-((2,6-dioxopiperidin-3-yl)amino)phenyl)-3,6-diazabicyclo[3.2.1]octan-6-yl)methyl)piperidine-1-carbonyl)phenyl)amino)-5-fluoropyrimidin-4-yl)amino)benzamide] | C (C is 0.5 to 0.7) | B (B is 0.2 to 0.4)
12 | O=C1CCC(Nc2ccc(N3CCC(CN4CC5(C4)CN(C(=O)c4ccc(Nc6ncc(F)c(Nc7ccc(C(=O)Nc8ccccc8Cl)cc7)n6)cc4)C5)CC3)cc2)C(=O)N1 (centres unmarked) [Compound 31, N-(2-chlorophenyl)-4-((2-((4-(6-((1-(4-((2,6-dioxopiperidin-3-yl)amino)phenyl)piperidin-4-yl)methyl)-2,6-diazaspiro[3.3]heptane-2-carbonyl)phenyl)amino)-5-fluoropyrimidin-4-yl)amino)benzamide] | C (C is 0.5 to 0.7) | B (B is 0.2 to 0.4)
13 | O=C1CCC(Nc2ccc(N3CCC(CN4CCC5(CCN(C(=O)c6ccc(Nc7ncc(F)c(Nc8ccc(C(=O)Nc9ccccc9Cl)cc8)n7)cc6)C5)C4)CC3)cc2)C(=O)N1 (centres unmarked) [Compound 32, N-(2-chlorophenyl)-4-((2-((4-(7-((1-(4-((2,6-dioxopiperidin-3-yl)amino)phenyl)piperidin-4-yl)methyl)-2,7-diazaspiro[4.4]nonane-2-carbonyl)phenyl)amino)-5-fluoropyrimidin-4-yl)amino)benzamide] | B (B is 0.3 to 0.5) | B (B is 0.2 to 0.4)
